# Source: patent US20090247559A1 (Exelixis, Inc., priority 2007, published 2009)
# Columns and labels:
# [1] = target: PIM (PIM-1, PIM-2, and/or PIM-3); experiment: PIM-1, PIM-2 and PIM-3 inhibition, biochemical chemiluminescence assays (Kinase Glo, IC50 determination); details: Table 1 activity class; PIM refers to PIM-1, PIM-2, and/or PIM-3; read-out: PIM IC50 (Activity B)
# CK2 = CK2 (Homo sapiens, UniProt P68400); experiment: CK2 inhibition, biochemical chemiluminescence holoenzyme assay (Kinase Glo, IC50 determination); details: Table 1 activity class; symbol given only if active; read-out: CK2 IC50 (Activity C)
# CK2, sequence (P68400 whole entry): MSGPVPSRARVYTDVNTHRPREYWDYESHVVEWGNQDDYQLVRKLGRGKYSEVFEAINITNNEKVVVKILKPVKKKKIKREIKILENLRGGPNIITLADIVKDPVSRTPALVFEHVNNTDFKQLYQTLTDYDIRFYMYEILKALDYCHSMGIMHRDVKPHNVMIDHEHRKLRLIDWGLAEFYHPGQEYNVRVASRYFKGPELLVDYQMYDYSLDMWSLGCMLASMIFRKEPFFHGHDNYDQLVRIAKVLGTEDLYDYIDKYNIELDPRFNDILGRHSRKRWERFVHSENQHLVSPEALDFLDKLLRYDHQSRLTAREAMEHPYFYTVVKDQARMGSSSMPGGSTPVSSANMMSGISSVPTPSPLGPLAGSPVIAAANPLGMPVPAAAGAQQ
# CK2, sequence (P67870 whole entry partner): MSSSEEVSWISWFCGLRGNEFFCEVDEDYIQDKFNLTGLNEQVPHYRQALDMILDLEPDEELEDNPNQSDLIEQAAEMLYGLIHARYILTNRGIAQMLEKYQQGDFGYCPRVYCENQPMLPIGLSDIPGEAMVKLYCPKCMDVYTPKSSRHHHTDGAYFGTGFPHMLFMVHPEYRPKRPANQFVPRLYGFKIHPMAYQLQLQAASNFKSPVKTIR
# Outline: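 Holoenzyme CK2 assay; compounds pre-incubated with substrate and enzyme, then reacted 150 min at 24-27° C. Remaining ATP measured as luminescence with Kinase Glo, and IC50 derived from the signal.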
SMILES,IC50 [1],IC50 (CK2)
"CC(C)(C)OC(=O)NC1CCC(c2nc3c(oc4ccc(Br)cc43)c(=O)[nH]2)CC1 (centres unmarked) [Compound 222, 1,1-Dimethylethyl [4-(8-bromo-4-oxo-3,4-dihydro[1]benzofuro[3,2-d]pyrimidin-2-yl)cyclohexyl]carbamate]",< 10 µM,< 10 µM
"CN(C)CC(=O)N1CCC(c2nc3c(oc4ccc(Br)cc43)c(=O)[nH]2)CC1 [Compound 210, 8-bromo-2-[1-(N,N-dimethylglycyl)piperidin-4-yl][1]benzofuro[3,2-d]pyrimidin-4(3H)-one]",< 10 µM,< 10 µM
"O=C(NCc1ccc(Cl)cc1)C1CCN(Cc2nc3c(oc4ccc(Br)cc43)c(=O)[nH]2)C1 (centres unmarked) [Compound 271, 1-[(8-bromo-4-oxo-3,4-dihydro[1]benzofuro[3,2-d]pyrimidin-2-yl)methyl]-N-[(4-chlorophenyl)methyl]pyrrolidine-3-carboxamide]",< 10 µM,< 10 µM
"NC[C@H]1CC[C@H](c2nc3c(oc4ccc(Br)cc43)c(=O)[nH]2)CC1 [Compound 376, 2-[trans-4-(Aminomethyl)cyclohexyl]-8-bromo[1]benzofuro[3,2-d]pyrimidin-4(3H)-one]",< 10 µM,< 10 µM
"COc1ccc(CNCc2nc3c(oc4ccc(Br)cc43)c(=O)[nH]2)cc1 [Compound 261, 8-bromo-2-[({[4-(methyloxy)phenyl]methyl}amino)methyl][1]benzofuro[3,2-d]pyrimidin-4(3H)-one]",< 10 µM,< 10 µM
"O=c1[nH]c(Cn2ccnc2)nc2c1oc1ccc(Br)cc12 [Compound 6, 8-bromo-2-(1H-imidazol-1-ylmethyl)[1]benzofuro[3,2-d]pyrimidin-4(3H)-one]",< 10 µM,< 10 µM
"O=c1[nH]c(CC2CCNCC2)nc2c1oc1ccc(Br)cc12 [Compound 122, 8-bromo-2-(piperidin-4-ylmethyl)[1]benzofuro[3,2-d]pyrimidin-4(3H)-one]",< 10 µM,< 10 µM
"O=c1[nH]c(-c2ccccc2F)nc2c1oc1ccc(Br)cc12 [Compound 58, 8-Bromo-2-(2-fluorophenyl)[1]benzofuro[3,2-d]pyrimidin-4(3H)-one]",< 10 µM,< 10 µM
"O=c1[nH]c(-c2ccc3c(c2)CCNC3)nc2c1oc1ccc(Br)cc12 [Compound 300, 8-Bromo-2-(1,2,3,4-tetrahydroisoquinolin-6-yl)[1]benzofuro[3,2-d]pyrimidin-4(3H)-one]",< 10 µM,< 10 µM
"O=c1[nH]c(CN2CC[C@H](O)C2)nc2c1oc1ccccc12 [Compound 204, 2-{[(3S)-3-hydroxypyrrolidin-1-yl]methyl}[1]benzofuro[3,2-d]pyrimidin-4(3H)-one]",< 10 µM,< 10 µM
"CN(C)CCC(=O)N1CCC(c2nc3c(oc4ccc(Br)cc43)c(=O)[nH]2)CC1 [Compound 206, 8-bromo-2-[1-(N,N-dimethyl-beta-alanyl)piperidin-4-yl][1]benzofuro[3,2-d]pyrimidin-4(3H)-one]",< 10 µM,< 10 µM
"COc1cc(C(=O)Nc2ccc(-c3nc4c(oc5ccc(Br)cc54)c(=O)[nH]3)c(Cl)c2)ccn1 [Compound 335, N-[4-(8-bromo-4-oxo-3,4-dihydro[1]benzofuro[3,2-d]pyrimidin-2-yl)-3-chlorophenyl]-2-(methyloxy)pyridine-4-carboxamide]",< 10 µM,< 10 µM
"CN(C)c1ccccc1CNCc1nc2c(oc3ccc(Br)cc32)c(=O)[nH]1 [Compound 10, 8-bromo-2-[({[2-(dimethylamino)phenyl]methyl}amino)methyl][1]benzofuro[3,2-d]pyrimidin-4(3H)-one]",< 10 µM,< 10 µM
"COc1cc(C(=O)Nc2ccc(Cl)c(-c3nc4c(oc5ccc(Br)cc54)c(=O)[nH]3)c2)ccn1 [Compound 337, N-[3-(8-bromo-4-oxo-3,4-dihydro[1]benzofuro[3,2-d]pyrimidin-2-yl)-4-chlorophenyl]-2-(methyloxy)pyridine-4-carboxamide]",< 10 µM,< 10 µM
"COC(=O)c1ccc(-c2nc3c(oc4ccc(Br)cc43)c(=O)[nH]2)c(Cl)c1 [Compound 146, methyl 4-(8-bromo-4-oxo-3,4-dihydro[1]benzofuro[3,2-d]pyrimidin-2-yl)-3-chlorobenzoate]",< 10 µM,< 10 µM
"O=C(NCc1ccccc1)c1cccc(-c2nc3c(oc4ccc(Br)cc43)c(=O)[nH]2)c1 [Compound 99, 3-(8-bromo-4-oxo-3,4-dihydro[1]benzofuro[3,2-d]pyrimidin-2-yl)-N-(phenylmethyl)benzamide]",< 10 µM,< 10 µM
"O=c1[nH]c(-c2ccccc2Cl)nc2c1oc1ccc3ccccc3c12 [Compound 96, 10-(2-Chlorophenyl)naphtho[1′,2′:4,5]furo[3,2-d]pyrimidin-8(9H)-one]",< 10 µM,< 10 µM

SMILES,IC50 [1],IC50 (CK2)
"O=c1[nH]c(CN2CC[C@H](O)C2)nc2c1oc1ccc(NCc3ccccc3)cc12 [Compound 443, 2-{[(3S)-3-hydroxypyrrolidin-1-yl]methyl}-8-[(phenylmethyl)amino][1]benzofuro[3,2-d]pyrimidin-4(3H)-one]",< 10 µM,< 10 µM
"CCN(CC)CC(=O)N1CCN(c2nc3c(oc4ccc(Br)cc43)c(=O)[nH]2)CC1 [Compound 245, 8-bromo-2-[4-(N,N-diethylglycyl)piperazin-1-yl][1]benzofuro[3,2-d]pyrimidin-4(3H)-one]",< 10 µM,< 10 µM
"CN(Cc1nc2c(oc3ccc(Br)cc32)c(=O)[nH]1)CC(O)CO (centres unmarked) [Compound 409, 8-bromo-2-{[(2,3-dihydroxypropyl)(methyl)amino]methyl}[1]benzofuro[3,2-d]pyrimidin-4(3H)-one]",< 10 µM,< 10 µM
"O=C(Nc1ccc(-c2nc3c(oc4ccc(Br)cc43)c(=O)[nH]2)c(Cl)c1)c1ccc2cccnc2n1 [Compound 405, N-[4-(8-bromo-4-oxo-3,4-dihydro[1]benzofuro[3,2-d]pyrimidin-2-yl)-3-chlorophenyl]-1,8-naphthyridine-2-carboxamide]",< 10 µM,< 10 µM
"O=C(Nc1ccc(-c2nc3c(oc4ccc(Br)cc43)c(=O)[nH]2)c(Cl)c1)c1cnc2ccccc2n1 [Compound 397, N-[4-(8-bromo-4-oxo-3,4-dihydro[1]benzofuro[3,2-d]pyrimidin-2-yl)-3-chlorophenyl]quinoxaline-2-carboxamide]",< 10 µM,< 10 µM
"O=c1[nH]c(CN(CCO)CCO)nc2c1oc1ccc(Br)cc12 [Compound 410, 2-{[bis(2-hydroxyethyl)amino]methyl}-8-bromo[1]benzofuro[3,2-d]pyrimidin-4(3H)-one]",< 10 µM,< 10 µM
"O=c1[nH]c(-c2ccccc2Br)nc2c1oc1ccc(Br)cc12 [Compound 38, 8-Bromo-2-(2-bromophenyl)[1]benzofuro[3,2-d]pyrimidin-4(3H)-one]",< 10 µM,< 10 µM
"O=C(Nc1ccc(Cl)c(-c2nc3c(oc4ccc(Br)cc43)c(=O)[nH]2)c1)C1CCOC1 (centres unmarked) [Compound 361, N-[3-(8-bromo-4-oxo-3,4-dihydro[1]benzofuro[3,2-d]pyrimidin-2-yl)-4-chlorophenyl]tetrahydrofuran-3-carboxamide]",< 10 µM,< 10 µM
"O=C(Nc1ccc(Cl)c(-c2nc3c(oc4ccc(Br)cc43)c(=O)[nH]2)c1)c1ccnc(Cl)c1 [Compound 326, N-[3-(8-bromo-4-oxo-3,4-dihydro[1]benzofuro[3,2-d]pyrimidin-2-yl)-4-chlorophenyl]-2-chloropyridine-4-carboxamide]",< 10 µM,< 10 µM
"CNCc1ccc(-c2nc3c(oc4ccc(Br)cc43)c(=O)[nH]2)cc1 [Compound 382, 8-bromo-2-{4-[(methylamino)methyl]phenyl}[1]benzofuro[3,2-d]pyrimidin-4(3H)-one]",< 10 µM,< 10 µM
"COCCN1CCN(Cc2nc3c(oc4ccc(Br)cc43)c(=O)[nH]2)CC1 [Compound 151, 8-bromo-2-({4-[2-(methyloxy)ethyl]piperazin-1-yl}methyl)[1]benzofuro[3,2-d]pyrimidin-4(3H)-one]",< 10 µM,< 10 µM
"O=C(Nc1ccc(-c2nc3c(oc4ccc(Br)cc43)c(=O)[nH]2)c(Cl)c1)c1ccc(-n2cccn2)nc1 [Compound 396, N-[4-(8-bromo-4-oxo-3,4-dihydro[1]benzofuro[3,2-d]pyrimidin-2-yl)-3-chlorophenyl]-6-(1H-pyrazol-1-yl)pyridine-3-carboxamide]",< 10 µM,< 10 µM
"O=C1CC(c2nc3c(oc4ccc(Br)cc43)c(=O)[nH]2)CN1C1CCNCC1 (centres unmarked) [Compound 304, 8-Bromo-2-(5-oxo-1-piperidin-4-ylpyrrolidin-3-yl)[1]benzofuro[3,2-d]pyrimidin-4(3H)-one]",< 10 µM,< 10 µM
O=c1[nH]c(CCN2CCCC2)nc2c1oc1ccc(Br)cc12 [Compound 105],< 10 µM,< 10 µM
"CN(C)CC(C)(C)CNc1ccc(-c2nc3c(oc4ccc(Br)cc43)c(=O)[nH]2)c(Cl)c1 [Compound 179, 8-bromo-2-(2-chloro-4-{[3-(dimethylamino)-2,2-dimethylpropyl]amino}phenyl)[1]benzofuro[3,2-d]pyrimidin-4(3H)-one]",< 10 µM,< 10 µM
"O=c1[nH]c(CN2CCOCC2)nc2c1oc1ccc(Br)cc12 [Compound 24, 8-bromo-2-(morpholin-4-ylmethyl)[1]benzofuro[3,2-d]pyrimidin-4(3H)-one]",< 10 µM,< 10 µM
"CC(C)COc1ccc2oc3c(=O)[nH]c(CN4CC[C@H](O)C4)nc3c2c1 [Compound 477, 2-{[(3S)-3-hydroxypyrrolidin-1-yl]methyl}-8-[(2-methylpropyl)oxy][1]benzofuro[3,2-d]pyrimidin-4(3H)-one]",< 10 µM,< 10 µM
